The values that follow come from ChEMBL document CHEMBL1201862, “PubChem BioAssay data set” (2004).

As usually defined, the GI50 is the concentration at which growth is held to half of that of the control.

Test systems include ACHN; PC-3; OVCAR-8; MCF7; NCI-H522; SF-295; SNB-19; 786-0; NCI-H23; U-251; SF-539; IGROV-1; T47D; SK-MEL-2; HT-29; A549; OVCAR-4; NCI/ADR-RES; DU-145; CCRF-CEM.
Holding throughout (assay): DTP human tumour cell line panel, 48 h

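The compound was tested at five concentrations on cells cultured in 96-well plates, with a 48-hour exposure period. GI50 is the concentration that inhibits growth by half.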 Calls of active or inactive are those of the source. Rule as the data show it: active = GI50 up to about 1.1 µM and inactive = higher. Some results are limits rather than exact numbers.

`c1nnc(NCNc2nncs2)s1`: the GI50 with ACHN is 29.4 µM (inactive); in the experiment on PC-3, 57.1 µM (inactive); in the experiment with OVCAR-8 it was 69.5 µM (inactive); with MCF7 it was 38.5 µM (inactive); in the experiment on NCI-H522 it was 48.1 µM (inactive); with SF-295, 28.1 µM (inactive). Further, the GI50 in the experiment on SNB-19 is > 100 µM (inactive); in the experiment on 786-0, 46.8 µM (inactive); in the experiment with NCI-H23 it was 47.9 µM (inactive); with U-251, 50 µM (inactive); in the experiment with SF-539, 31 µM (inactive); with IGROV-1, 49.1 µM (inactive). Moreover, the GI50 with T47D was 90.4 µM (inactive); with SK-MEL-2, 68.9 µM (inactive); with HT-29, 19.1 µM (inactive); in the experiment on A549 it was 23.6 µM (inactive); in the experiment with OVCAR-4, 11.7 µM (inactive); in the experiment on NCI/ADR-RES, > 100 µM (inactive). Moreover, the GI50 is 16 µM (inactive) in the experiment with DU-145 and 61.1 µM (inactive) in the experiment on CCRF-CEM.
Regarding `O=C(Cc1ccccc1F)NC1=C(Cl)C(=O)c2ccccc2C1=O`, the GI50 in the experiment on ACHN is 0.543 µM (active); with PC-3 it was 1.25 µM (inactive); with OVCAR-8, 2.16 µM (inactive); in the experiment on MCF7, 3.74 µM (inactive); with NCI-H522 it was 0.29 µM (active); with SF-295, 2.85 µM (inactive). The GI50 is 2.84 µM (inactive) in the experiment on SNB-19; 3.09 µM (inactive) in the experiment with 786-0; 0.778 µM (active) in the experiment with NCI-H23; 0.65 µM (active) with U-251; 0.333 µM (active) in the experiment on SF-539; 1.46 µM (inactive) with IGROV-1. Also, the GI50 in the experiment with T47D was 1.87 µM (inactive); in the experiment with SK-MEL-2, 0.652 µM (active); in the experiment on HT-29, 5.75 µM (inactive); in the experiment with A549, 2.51 µM (inactive); with OVCAR-4, 0.659 µM (active); in the experiment with NCI/ADR-RES, 1.95 µM (inactive). Further, the GI50 was 10.1 µM (inactive) with DU-145 and 0.428 µM (active) in the experiment on CCRF-CEM.
Take `O=C(CCc1ccc(O)cc1)NCCc1ccc(O)cc1`: the GI50 with ACHN is 62.4 µM (inactive); in the experiment with PC-3 it was > 100 µM (inactive); in the experiment on OVCAR-8, > 100 µM (inactive); in the experiment on MCF7, > 100 µM (inactive); in the experiment on NCI-H522 it was > 100 µM (inactive); in the experiment on SF-295, > 100 µM (inactive). Besides, the GI50 with SNB-19, in the experiment with 786-0, in the experiment with NCI-H23, with U-251, in the experiment on SF-539 and with IGROV-1 was > 100 µM (inactive) throughout. Besides, the GI50 in the experiment on T47D, with SK-MEL-2, with HT-29, in the experiment on A549, in the experiment with OVCAR-4 and in the experiment on NCI/ADR-RES was > 100 µM (inactive) in each case. Moreover, the GI50 in the experiment on DU-145 and in the experiment with CCRF-CEM was > 100 µM (inactive) each time.
As for `CN(C)C(=O)CO/N=C1/C(=C2/C(=O)Nc3ccccc32)Nc2ccccc21`, the GI50 is > 100 µM (inactive) with ACHN; > 100 µM (inactive) in the experiment with PC-3; > 100 µM (inactive) in the experiment with OVCAR-8; > 100 µM (inactive) with MCF7; > 100 µM (inactive) in the experiment on NCI-H522; 39.9 µM (inactive) in the experiment with SF-295. Further, the GI50 was > 100 µM (inactive) in the experiment with SNB-19; 64.7 µM (inactive) in the experiment with 786-0; > 100 µM (inactive) in the experiment with NCI-H23; 26.6 µM (inactive) with U-251; 39.3 µM (inactive) with SF-539; > 100 µM (inactive) in the experiment on IGROV-1. Moreover, the GI50 in the experiment on T47D, in the experiment on SK-MEL-2, in the experiment with HT-29, in the experiment with A549, in the experiment with OVCAR-4 and with NCI/ADR-RES was > 100 µM (inactive) throughout. For the same compound, the GI50 in the experiment on DU-145 and in the experiment with CCRF-CEM was > 100 µM (inactive) in each case.
On to `Cc1c(O)nc(/C=C/C(=O)O)nc1C(=O)O`, for which the GI50 in the experiment on ACHN, in the experiment with PC-3, in the experiment on OVCAR-8, with MCF7, with NCI-H522 and in the experiment with SF-295 was > 100 µM (inactive) each time. The GI50 with SNB-19, with 786-0, in the experiment on NCI-H23, in the experiment on U-251, in the experiment on SF-539 and in the experiment with IGROV-1 was > 100 µM (inactive) throughout. Also, the GI50 in the experiment on T47D, in the experiment on SK-MEL-2, with HT-29, in the experiment with A549, with OVCAR-4 and in the experiment on NCI/ADR-RES was > 100 µM (inactive) throughout. Moreover, the GI50 in the experiment with DU-145 and in the experiment with CCRF-CEM was > 100 µM (inactive) throughout.
For `O=C1c2cccc3cc([N+](=O)[O-])cc(c23)C(=O)N1Nc1ccc([N+](=O)[O-])cc1[N+](=O)[O-]`, the GI50 in the experiment with ACHN was 0.557 µM (active); with PC-3, 17.9 µM (inactive); in the experiment with OVCAR-8, 13 µM (inactive); with MCF7, 14.5 µM (inactive); in the experiment on NCI-H522, 11.6 µM (inactive); in the experiment with SF-295 it was 27 µM (inactive). Besides, the GI50 in the experiment on SNB-19 was 18.2 µM (inactive); with 786-0, 13.6 µM (inactive); with NCI-H23, 17.9 µM (inactive); with U-251, 13.3 µM (inactive); in the experiment with SF-539, 10.6 µM (inactive); with IGROV-1, 12.4 µM (inactive). Moreover, the GI50 with T47D is 16.4 µM (inactive); in the experiment on SK-MEL-2, > 100 µM (inactive); with HT-29 it was 12.9 µM (inactive); in the experiment with A549 it was 16.3 µM (inactive); in the experiment with OVCAR-4, 19.3 µM (inactive); in the experiment with NCI/ADR-RES, 19.1 µM (inactive). The values for the GI50 with DU-145 and in the experiment on CCRF-CEM were 40.8 µM (inactive) and 1.85 µM (inactive), respectively.
Regarding `COc1ccc2nc3cc(Cl)ccc3c(NCCCN(C)CCCNc3ccc4ncn5c6ccccc6c(=O)c3c45)c2c1`, the GI50 in the experiment with ACHN was 0.0102 µM (active); in the experiment on PC-3 it was 0.547 µM (active); in the experiment with OVCAR-8 it was 0.163 µM (active); in the experiment with MCF7, 0.0525 µM (active); with NCI-H522, 0.0264 µM (active); with SF-295, 0.169 µM (active). The concentration for 50% growth inhibition (GI50) in the experiment on SNB-19 was 0.269 µM (active); in the experiment on 786-0 it was 0.0333 µM (active); in the experiment with NCI-H23 it was 1.18 µM (inactive); in the experiment on U-251, 0.0478 µM (active); in the experiment on SF-539, 0.0861 µM (active); in the experiment on IGROV-1, 0.0374 µM (active). The GI50 in the experiment with T47D is 4.15 µM (inactive); with SK-MEL-2 it was 3.3 µM (inactive); in the experiment with HT-29 it was 0.0025 µM (active); in the experiment on A549 it was 0.0321 µM (active); in the experiment with OVCAR-4, 0.0897 µM (active); in the experiment on NCI/ADR-RES, 1.26 µM (inactive). Further, the GI50 in the experiment with DU-145 is 0.587 µM (active); in the experiment with CCRF-CEM, 0.228 µM (active).
As for `C=C1C[C@@H]2O[C@H]3[C@H]4[C@@H](C[C@@H](C)[C@@H](OC(C)=O)[C@H]42)[C@@H](C)CO[C@@]3(C)[C@H](OC(=O)CCCCCCC)C[C@H]1O`, the GI50 is 20.7 µM (inactive) in the experiment with ACHN; 15.3 µM (inactive) in the experiment with PC-3; 16.2 µM (inactive) in the experiment on OVCAR-8; 21.4 µM (inactive) in the experiment on MCF7; 16.4 µM (inactive) with NCI-H522; 21.7 µM (inactive) in the experiment with SF-295. In addition, the GI50 with SNB-19 was 16.7 µM (inactive); in the experiment on 786-0, 15.5 µM (inactive); in the experiment with NCI-H23, 19.8 µM (inactive); with U-251 it was 16.9 µM (inactive); in the experiment on SF-539, 23.4 µM (inactive); in the experiment with IGROV-1, 17.5 µM (inactive). The GI50 in the experiment on T47D is 11.1 µM (inactive); with SK-MEL-2, 20.3 µM (inactive); in the experiment with HT-29 it was 20.1 µM (inactive); with A549, 18.2 µM (inactive); in the experiment with OVCAR-4 it was 12.8 µM (inactive); in the experiment on NCI/ADR-RES it was 15.9 µM (inactive). Moreover, the figures for the GI50 in the experiment with DU-145 and with CCRF-CEM were 14.9 µM (inactive) and 14.3 µM (inactive), respectively.
Take `COC(=O)[C@@H]1[C@H](O)CC[C@H]2[C@@]1(C)CC[C@@H](C)[C@]2(COC(C)=O)CC(=O)c1ccoc1`: the GI50 is > 50 µM (inactive) in the experiment on ACHN; > 50 µM (inactive) in the experiment with PC-3; > 50 µM (inactive) with OVCAR-8; > 50 µM (inactive) with MCF7; 35.7 µM (inactive) with NCI-H522; > 50 µM (inactive) in the experiment with SF-295. Further, the GI50 with SNB-19, in the experiment on 786-0, in the experiment with NCI-H23, in the experiment on U-251, in the experiment on SF-539 and in the experiment on IGROV-1 was > 50 µM (inactive) each time. Besides, the GI50 in the experiment on T47D was 28.8 µM (inactive); in the experiment on SK-MEL-2, > 50 µM (inactive); in the experiment with HT-29, > 50 µM (inactive); in the experiment on A549, > 50 µM (inactive); in the experiment on OVCAR-4, 25.2 µM (inactive); in the experiment on NCI/ADR-RES, > 50 µM (inactive). In addition, the GI50 with DU-145 is > 50 µM (inactive); with CCRF-CEM, 16.7 µM (inactive).
Consider `COC(=O)C1CN=CN1CCc1ccccc1` (stereo not given), for which the GI50 in the experiment on ACHN, with PC-3, with OVCAR-8, in the experiment with MCF7, in the experiment on NCI-H522 and in the experiment with SF-295 was > 100 µM (inactive) each time. The GI50 with SNB-19, in the experiment on 786-0, in the experiment on NCI-H23, in the experiment with U-251, in the experiment with SF-539 and in the experiment on IGROV-1 was > 100 µM (inactive) each time. For the same compound, the GI50 in the experiment with T47D, with SK-MEL-2, in the experiment on HT-29, in the experiment on A549, in the experiment on OVCAR-4 and in the experiment on NCI/ADR-RES was > 100 µM (inactive) each time. In addition, the GI50 in the experiment with DU-145 and in the experiment with CCRF-CEM was > 100 µM (inactive) in each case.
